This passage reports inhibition and ED50 results from patent publication US20110003994A1, “CYCLOALKANE DERIVATIVE” (Dainippon Sumitomo Pharma Co., Ltd., priority 2009, published 2011).

Bounds are passed on as bounds.

One data set has as its target T1, human D2 receptor (Homo sapiens, UniProt P14416).
T1 construct: expressed in transfected cells
In words: Binding assay for D2 receptor using [3H] spiperone. Particulars: test compound 100 nM, cell membrane expressing human D2 receptor, read-out: Binding inhibitory rate (%) for D2 receptor (100 nM). As to the method: In general, there is clinically some correlation between antipsychotic action and antagonistic action for dopamine D2 receptor. The experimental method used herein is a binding assay for D2 receptor which is one of the tests evaluating D2 receptor action in vitro, According to the known method (e.g. Japan, J. Pharmacol., 53, 321-329 (1990)), the above-captioned experiment was carried out using [3H] spiperone, i.e., the binding amount of [3H] spiperone to the preparation cell membrane expressing human D2 receptor was measured, and then the binding inhibitory rate by the test compound (100 nM) was measured/calculated.

Data set [1] can be described thus: Cataleptic action (pole test). Particulars: in vivo, ip; male rat, intraperitoneal, one hour after administration; dose inducing catalepsy in 50% of the rats. As to the method: The cataleptic action which is a typical central nervous system side-effect of antipsychotic agents in the clinical study was evaluated as follows. The test substance was intraperitoneally administered to a male rat. One hour later, the rat was made to hold on a pole three times which is horizontally set at a height of 9 cm. When the rat retained the unnatural stretched pose for 30 seconds even one time out of three times, the rat was evaluated as cataleptic positive. The dose for inducing 50% the rats to the catalepsy: ED50 value was calculated.

For data set [2], the system named is methamphetamine-induced movement of the rat. In words: Anti-methamphetamine test (movement measured with Supermex). Format: in vivo. Particulars: male rat, intraperitoneal, 30 min before methamphetamine 1 mg/kg i.p.; movement measured for 90 minutes; dose for 50% inhibition; read-out: Antidopaminergic action ED50. Here is the method: The anti-methamphetamine test which is a typical in vivo test for evaluating antipsychotic action in the clinical study was carried out as follows. The test substance was intraperitoneally administered to a male rat, and 30 minutes later methamphetamine (1 mg/kg) was intraperitoneally administered to the male rat. Ten minutes after completing the administrations, the movement of the rat was measured with Supermex for 90 minutes, and the dose for 50% inhibition: ED50 value was calculated.

T1 sequence (P14416 whole entry): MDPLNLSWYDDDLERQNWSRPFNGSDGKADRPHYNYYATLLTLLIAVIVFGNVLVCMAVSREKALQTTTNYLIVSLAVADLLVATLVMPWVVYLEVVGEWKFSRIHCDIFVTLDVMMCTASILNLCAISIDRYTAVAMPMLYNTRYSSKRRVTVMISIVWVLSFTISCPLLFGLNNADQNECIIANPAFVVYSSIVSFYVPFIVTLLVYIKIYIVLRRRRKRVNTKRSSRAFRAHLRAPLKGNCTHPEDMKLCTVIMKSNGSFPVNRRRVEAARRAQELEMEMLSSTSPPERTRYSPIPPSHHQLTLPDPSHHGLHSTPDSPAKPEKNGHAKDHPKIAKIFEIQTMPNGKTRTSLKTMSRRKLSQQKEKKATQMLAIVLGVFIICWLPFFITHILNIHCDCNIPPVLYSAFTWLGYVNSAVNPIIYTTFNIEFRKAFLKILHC

On to `Cc1cccc(/C=C/C(=O)NC[C@@H]2CCCC[C@@H]2CN2CCN(c3nsc4ccccc34)CC2)c1` [Example 13], for which the inhibition at 0.1 µM on human D2 receptor came out at 92%.
On the same count and under the same terms, the figure for `COc1cccc(/C=C/C(=O)NC[C@@H]2CCCC[C@@H]2CN2CCN(c3nsc4ccccc34)CC2)c1OC` [Example 14] is 92%.
On the same count and under the same terms, the figure for `COc1ccccc1/C=C/C(=O)NC[C@@H]1CCCC[C@@H]1CN1CCN(c2nsc3ccccc23)CC1` [Example 15] is 93%.
For the molecule `O=C(/C=C/c1ccccc1[N+](=O)[O-])NC[C@@H]1CCCC[C@@H]1CN1CCN(c2nsc3ccccc23)CC1` [Example 16], the inhibition at 0.1 µM at human D2 receptor is 94%.
On the same count and under the same terms, the value for `O=C(/C=C/c1ccc2c(c1)OCO2)NC[C@@H]1CCCC[C@@H]1CN1CCN(c2nsc3ccccc23)CC1` [Example 21] was 91%; that for `COc1ccccc1/C=C/C(=O)NC[C@H]1CCCC[C@@H]1CN1CCN(c2nsc3ccccc23)CC1` [Example 32] was 91%.
On the same count and under the same terms, the figure for `O=C(/C=C/c1ccccc1[N+](=O)[O-])NC[C@H]1CCCC[C@@H]1CN1CCN(c2nsc3ccccc23)CC1` [Example 33] is 90%; for `O=C(NC[C@H]1CCCC[C@@H]1CN1CCN(c2nsc3ccccc23)CC1)c1ccc2c(c1)OCO2` [Example 36] it is 92%.
Consider `O=C(Cc1ccc(Cl)cc1)NC[C@H]1CCCC[C@@H]1CN1CCN(c2nsc3ccccc23)CC1` [Example 37], for which the inhibition at 0.1 µM on human D2 receptor worked out at 90%.
On the same count and under the same terms, the figure for `O=C(/C=C/c1ccccc1F)NC[C@H]1CCCC[C@@H]1CN1CCN(c2nsc3ccccc23)CC1` [Example 44] is 91%; for `Cc1ccccc1/C=C/C(=O)NC[C@H]1CCCC[C@H]1CN1CCN(c2nsc3ccccc23)CC1` [Example 60] it is 91%.
Same read-out and setting: the figure for `COc1cccc(/C=C/C(=O)NC[C@H]2CCCC[C@H]2CN2CCN(c3nsc4ccccc34)CC2)c1OC` [Example 62] is 91%; for `O=C(/C=C/c1ccccc1[N+](=O)[O-])NC[C@H]1CCCC[C@H]1CN1CCN(c2nsc3ccccc23)CC1` [Example 64] it is 92%; for `O=C(NC[C@H]1CCCC[C@H]1CN1CCN(c2nsc3ccccc23)CC1)c1ccc2c(c1)OCO2` [Example 67] it is 90%.
On the same count and under the same terms, the figure for `O=C(/C=C/c1ccc2c(c1)OCO2)NC[C@H]1CCCC[C@H]1CN1CCN(c2nsc3ccccc23)CC1` [Example 69] is 91%; for `O=C(NC[C@@H]1CCCC[C@H]1CN1CCN(c2nsc3cc(F)ccc23)CC1)c1ccc2c(c1)OCO2` [Example 82] it is 94%.
Take `O=C(/C=C/c1ccc2c(c1)OCO2)NC[C@@H]1CCCC[C@H]1CN1CCN(c2nsc3cc(F)ccc23)CC1` [Example 84]: the inhibition at 0.1 µM on human D2 receptor stood at 95%.
Turning to `O=C1C2C3CCC(C3)C2C(=O)N1C[C@@H]1CCCC[C@H]1CN1CCN(c2nsc3cc(F)ccc23)CC1` (stereo partly drawn) [Example 85], at human D2 receptor, the inhibition at 0.1 µM was 91%.
One may read the ED50 as the midpoint of the dose-response relation. In data set [1], `O=C(NC[C@H]1CCC[C@@H]1CN1CCN(c2nsc3ccccc23)CC1)c1cccc(Oc2ccccc2)c1` [Example 87] returned an ED50 at 1 h above 135 mg/kg. Also, the inhibition at 0.1 µM at human D2 receptor is 93%. Besides, the 50% effective dose (ED50) in data set [2] was 4.5 mg/kg.
For the molecule `O=S(=O)(NC[C@H]1CCC[C@@H]1CN1CCN(c2nsc3ccccc23)CC1)c1cccc(-c2ccccc2)c1` [Example 100], the inhibition at 0.1 µM on human D2 receptor is 91%.
Same read-out and setting: the value for `COc1ccc(OC)c(S(=O)(=O)NC[C@H]2CCC[C@@H]2CN2CCN(c3nsc4ccccc34)CC2)c1` [Example 101] was 94%; that for `O=C(NC[C@H]1CCC[C@@H]1CN1CCN(c2nsc3ccccc23)CC1)c1ccc2c(c1)OCO2` [Example 102] was 95%; that for `O=C(/C=C/c1ccc2c(c1)OCO2)NC[C@H]1CCC[C@@H]1CN1CCN(c2nsc3ccccc23)CC1` [Example 104] was 92%.
On to `Cc1cccc(/C=C/C(=O)NC[C@H]2C[C@@H]2CN2CCN(c3nsc4ccccc34)CC2)c1` [Example 137], for which the inhibition at 0.1 µM on human D2 receptor was found to be 95%.
The same measure, in the same setting: the value for `COc1ccccc1/C=C/C(=O)NC[C@H]1C[C@@H]1CN1CCN(c2nsc3ccccc23)CC1` [Example 139] was 91%.
The same measure, in the same setting: the figure for `C=C1[C@H](CNC(=O)/C=C/c2ccccc2C)[C@H]1CN1CCC(c2noc3cc(F)ccc23)CC1` [Example 185] is 92%; for `C=C1[C@H](CNS(=O)(=O)c2cccc(-c3ccccc3)c2)[C@H]1CN1CCC(c2noc3cc(F)ccc23)CC1` [Example 190] it is 92%; for `C=C1[C@H](CNC(=O)c2ccc3c(c2)OCO3)[C@H]1CN1CCC(c2noc3cc(F)ccc23)CC1` [Example 192] it is 90%.
With `O=C(/C=C/c1cccc(Cl)c1)NC[C@@H]1CCCC[C@H]1CN1CCC(c2noc3cc(F)ccc23)CC1` [Example 200], in data set [1], the ED50 at 1 h is above 7.2 mg/kg. On human D2 receptor, the inhibition at 0.1 µM worked out at 92%. Also, the ED50 in data set [2] turned out to be 0.24 mg/kg.
Regarding `O=C(NC[C@@H]1CCCC[C@H]1CN1CCC(c2noc3cc(F)ccc23)CC1)c1ccc2c(c1)OCO2` [Example 221], the inhibition at 0.1 µM at human D2 receptor worked out at 93%.
Still for that read-out and setting: the value for `O=C(/C=C/c1ccc2c(c1)OCO2)NC[C@@H]1CCCC[C@H]1CN1CCC(c2noc3cc(F)ccc23)CC1` [Example 222] was 93%; that for `O=C1C2C3CCC(C3)C2C(=O)N1C[C@@H]1CCCC[C@H]1CN1CCC(c2noc3ccccc23)CC1` (stereo partly drawn) [Example 223] was 94%.
On the same count and under the same terms, the figure for `O=C1C2C3CCC(C3)C2C(=O)N1C[C@@H]1CCCC[C@H]1CN1CCC(c2noc3ccc(F)cc23)CC1` (stereo partly drawn) [Example 225] is 94%.
On to `O=C(/C=C/c1ccccc1[N+](=O)[O-])NC[C@@H]1CCCC[C@H]1CN1CCC(c2n[nH]c3cc(F)ccc23)CC1` [Example 239], for which, on human D2 receptor, the inhibition at 0.1 µM worked out at 95%.
Still for that read-out and setting: the value for `O=S(=O)(NC[C@@H]1CCCC[C@H]1CN1CCC(c2n[nH]c3cc(F)ccc23)CC1)c1cccc(-c2ccccc2)c1` [Example 240] was 85%; that for `COc1ccc(OC)c(S(=O)(=O)NC[C@@H]2CCCC[C@H]2CN2CCC(c3n[nH]c4cc(F)ccc34)CC2)c1` [Example 241] was 95%; that for `O=C(NC[C@@H]1CCCC[C@H]1CN1CCC(c2n[nH]c3cc(F)ccc23)CC1)c1ccc2c(c1)OCO2` [Example 242] was 95%.
Same read-out and setting: the figure for `O=C(Cc1ccc(Cl)cc1)NC[C@@H]1CCCC[C@H]1CN1CCC(c2n[nH]c3cc(F)ccc23)CC1` [Example 243] is 94%.
